Several values for one entry are separate records, joined by “and”; a condition that tells them apart may be missing. Equal values may be shown once. Activity calls are given as the source filed them. No rule for the calls is given here.
Tested on: in vivo angiogenesis, blood vessel count
Experiment: angiogenesis inhibition in living animals, in vivo study, HTS (AID 732);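 also: zebrafish embryos dosed at one day post fertilization; 0% = reference inhibitor and 100% = plate mean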
Conditions: hits give low values;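 tested at 30 µM in the well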

Structure (SMILES)	vessel count % control
Cc1cc(N)c2ccccc2[n+]1CCCCCCCCCC[n+]1c(C)cc(N)c2ccccc21	100% (inactive)
CN(C)CCC=C1c2ccccc2C=Cc2ccccc21	82.4% (inactive)
CN1C[C@H](C(=O)N[C@]2(C)O[C@@]3(O)[C@@H]4CCCN4C(=O)[C@H](Cc4ccccc4)N3C2=O)C[C@@H]2c3cccc4[nH]cc(c34)C[C@H]21	98.7% (inactive)
O=C(O)C1CCCNC1 (configuration not stated)	120% (inactive)
C[C@]12N[C@H](Cc3ccccc31)c1ccccc12	85.8% (inactive)
CCCN(CC1CC1)c1nc(C)nc(Nc2c(Cl)cc(Cl)cc2Cl)c1Cl	125% (inactive)
N=C1Sc2ccccc2C2=NCCCN12	104% (inactive)
O=C(NCCNCC(O)COc1ccc(O)cc1)N1CCOCC1 (configuration not stated)	89.9% (inactive)
Oc1cc2c(cc1O)C(c1ccccc1)CNCC2 (configuration not stated)	85.1% (inactive)
CN1CCN(C(=O)OC2c3nccnc3C(=O)N2c2ccc(Cl)cn2)CC1 (configuration not stated)	105% (inactive)
OCCN(CCO)c1nc(N2CCCCC2)c2nc(N(CCO)CCO)nc(N3CCCCC3)c2n1	109% (inactive)
C=C1C(=O)O[C@@H]2[C@H]3O[C@]3(C)CCC=C(C)CC[C@@H]12	92.5% (inactive)
C[N+]1(C)CCc2cc3c(cc2[C@H]1[C@@H]1OC(=O)c2c1ccc1c2OCO1)OCO3	85.4% (inactive)
Cc1ccc2c(c1)C(N1CCN(C)CC1)=Nc1cccnc1N2	127% (inactive)
Cn1cc(C(=O)OCC2CCN(CCNS(C)(=O)=O)CC2)c2ccccc21	106% (inactive)
O=C1Nc2ccc(I)cc2/C1=C/c1cc(Br)c(O)c(Br)c1	69.8% (inactive)
Cc1ccc(S(=O)(=O)NC(=O)NN2CCCCCC2)cc1	102% (inactive)
C/C=C1\C(=O)CC2C3CCC4=CC(=O)CC[C@]4(C)C3CC[C@]12C (some centres not stated)	102% (inactive)
c1ccc2nc(N3CCNCC3)ccc2c1	98% (inactive)
O=[N+]([O-])c1ccc(O[C@@H]2O[C@H](CO)[C@@H](O)[C@H](O)[C@H]2F)c([N+](=O)[O-])c1	99.2% (inactive)
CC(=O)[C@H]1CCC2C3CC[C@H]4C[C@H](O)CC[C@]4(C)C3CC[C@@]21C (some centres not stated)	68.7% (inactive)
NC(Cc1ccc(Cl)cc1)C(=O)O (configuration not stated)	103% (inactive)
CN(C)CCOC(=O)COc1ccc(Cl)cc1	102% (inactive)
S=C(S)N1CCCC1	73.2% (inactive)
CC(O)C(O)[C@H]1CNc2nc(N)[nH]c(=O)c2N1 (some centres not stated)	125% (inactive)

Structure (SMILES)	vessel count % control
COC(=O)C1=C(C)NC(C)=C(C(=O)OC)C1c1ccccc1[N+](=O)[O-]	112% (inactive)
C#CCN(C)Cc1ccccc1	91.4% (inactive)
O=C1C=CC(=O)C=C1	84.8% (inactive)
O=C(O)C1=CCCNC1	114% (inactive)
O=[N+]([O-])c1cccc2cn[nH]c12	136% (inactive)
O=C(O)c1cc2cc(F)ccc2[nH]1	104% (inactive)
COc1ccccc1N1CCN(CCN(C(=O)c2ccc(I)cc2)c2ccccn2)CC1	105% (inactive)
NC12CC3CC(CC(C3)C1)C2	110% (inactive)
O=c1ccc2ccc(O)c(O)c2o1	121% (inactive)
CC(=O)OCC1=C(C(=O)O)N2C(=O)[C@@H](NC(=O)CSc3ccncc3)[C@H]2SC1	97.3% (inactive)
O=C(c1ccc(F)cc1)C1CCN(CCn2c(=O)[nH]c3ccccc3c2=O)CC1	103% (inactive)
Cc1nc(-c2ccc(-c3ccc(C(=O)N4CCc5cc6c(cc54)C4(CCN(C)CC4)CO6)cc3)c(C)c2)no1	108% (inactive)
CC12CC3CC(C)(C1)CC(N)(C3)C2	128% (inactive)
NC(=O)NO	97.8% (inactive)
CN1CCc2cc(O)cc3c2[C@H]1Cc1ccc(O)c(O)c1-3	96.7% (inactive)
CNc1ncnc2c1ncn2[C@H]1C[C@H](OP(=O)(O)O)[C@@H](COP(=O)(O)O)O1	93.2% (inactive)
COC(=O)C1=CCCN(C)C1	66% (inactive)
O=C(OC1CCN(CCCl)CC1)C(c1ccccc1)c1ccccc1	102% (inactive)
Cc1nc2ccccn2c(=O)c1CCN1CCC(C(=O)c2ccc(F)cc2)CC1	94.9% (inactive)
COc1ccc(CCN(C)CCc2ccc(OC)c(OC)c2)cc1OC	101% (inactive)
CC(C)NCC(O)c1ccc(NS(C)(=O)=O)cc1 (configuration not stated)	95.6% (inactive)
CN(C)CC[C@@H](c1ccc(Cl)cc1)c1ccccn1	107% (inactive)
CC(=O)/C(C)=N/O	104% (inactive)
CN(C)CCOC(C)(c1ccccc1)c1ccccn1 (configuration not stated)	95.7% (inactive)
CC(=O)O[C@H]1CC2(C)[C@@H](C[C@@H](O)[C@H]3[C@@]4(C)CC[C@@H](O)[C@@H](C)[C@@H]4CC[C@@]32C)C1=C(CCC=C(C)C)C(=O)O (some centres not stated)	100% (inactive)

Structure (SMILES)	vessel count % control
CCN1CCC[C@H]1CNC(=O)c1cc(S(N)(=O)=O)ccc1OC	89.7% (inactive)
CC1=C(/C=C/C(C)=C/C=C/C(C)=C/C(=O)O)C(C)(C)CCC1	70% (inactive)
O=Nc1c(-c2c(O)[nH]c3ccc([N+](=O)[O-])cc23)[nH]c2ccc(Br)cc12	79.3% (inactive)
CC(C)NC(C)Cc1ccc(I)cc1 (configuration not stated)	109% (inactive)
CN1CCc2cccc3c2C1Cc1ccc(O)c(O)c1-3 (configuration not stated)	0% (inactive)
NC1CCN(O)C1=O (configuration not stated)	115% (inactive)
CCCN1CC[C@@H]2c3cc(O)ccc3CC[C@@H]21	88.5% (inactive) and 103% (inactive)
Cc1scc2c1N(C(=O)CN1CCN(C)CC1)c1ccccc1NC2=O	93.3% (inactive)
COC(=O)N1CCN(C(=O)Cc2ccc(Cl)c(Cl)c2)C(CN2CCCC2)C1 (configuration not stated)	116% (inactive)
O=C1O/C(=C/Br)CCC1c1cccc2ccccc12 (configuration not stated)	87.4% (inactive)
O=C(O)C1CN(CCCP(=O)(O)O)CCN1 (configuration not stated)	119% (inactive)
CN(C(=O)CCCOc1ccc2[nH]c(=O)ccc2c1)C1CCCCC1	94.5% (inactive)
NNCCc1ccccc1	104% (inactive)
CCC1(C)CC(=O)NC1=O (configuration not stated)	95.8% (inactive)
CC[C@H](NC(=O)c1c(C)c(-c2ccccc2)nc2ccccc12)c1ccccc1	126% (inactive)
CC(C)c1ccc2c(c1)c(SC(C)(C)C)c(CC(C)(C)C(=O)O)n2Cc1ccc(Cl)cc1	99.4% (inactive)
CC(N)Cc1c[nH]c2ccc(O)cc12 (configuration not stated)	99.1% (inactive)
O=C(Nc1cccc(C(=O)Nc2ccc(S(=O)(=O)O)c3cc(S(=O)(=O)O)cc(S(=O)(=O)O)c23)c1)Nc1cccc(C(=O)Nc2ccc(S(=O)(=O)O)c3cc(S(=O)(=O)O)cc(S(=O)(=O)O)c23)c1	88.2% (inactive)
C[C@](N)(Cc1ccc(O)cc1)C(=O)O	116% (inactive)
NCCc1ccc(S(=O)(=O)F)cc1	87.5% (inactive)
CC(=O)NCCc1c[nH]c2ccccc12	103% (inactive)
Cc1ccc(C(=O)Nc2ccc(S(=O)(=O)O)c3cc(S(=O)(=O)O)cc(S(=O)(=O)O)c23)cc1NC(=O)c1cccc(NC(=O)Nc2cccc(C(=O)Nc3cc(C(=O)Nc4ccc(S(=O)(=O)O)c5cc(S(=O)(=O)O)cc(S(=O)(=O)O)c45)ccc3C)c2)c1	119% (inactive)
CC1CCN(CC[C@H]2CCCN2S(=O)(=O)c2cccc(O)c2)CC1	95.5% (inactive)
O=C1NC(c2cccc([N+](=O)[O-])c2)=CCN1c1ccccc1O	91.3% (inactive)
COc1ccccc1N1CCN(CCCNc2c(C)c(=O)n(C)c(=O)n2C)CC1	70.6% (inactive)

Structure (SMILES)	vessel count % control
N[C@@H]1CONC1=O	90.5% (inactive)
Nc1cc(Cl)c(NC2=NCCN2)c(Cl)c1	114% (inactive)
NCC(O)c1ccc(O)c(O)c1 (configuration not stated)	108% (inactive)
CCOC(=O)c1ncn2c1CN(C)C(=O)c1cc(F)ccc1-2	98.9% (inactive)
Fc1ccc(C(OCCN2CCN(CCCc3ccccc3)CC2)c2ccc(F)cc2)cc1	71.4% (inactive)
NCCNC(=O)c1ncsc1-c1cccc(F)c1	102% (inactive)
OC[C@H]1O[C@@H](n2cnc3c(N[C@H]4CC5CCC4C5)ncnc32)[C@H](O)[C@@H]1O (some centres not stated)	77.1% (inactive)
CCC1(c2ccccc2)C(=O)NCNC1=O	91.4% (inactive)
CC[C@@H](CO)NC(=O)[C@@H]1C=C2c3cccc4[nH]cc(c34)C[C@H]2N(C)C1	121% (inactive)
C[N+](C)(C)CC#CCN1CCCC1=O	99.6% (inactive)
O=C1CCC(c2ccc(-n3ccnc3)cc2)=NN1	86% (inactive)
CCCCCC(O)CCCC(=O)O (configuration not stated)	101% (inactive)
NCC(O)c1cc(O)c(O)cc1F (configuration not stated)	87.4% (inactive)
OC[C@H]1O[C@@H](n2cnc3c(NCCc4ccccc4)ncnc32)C(O)[C@H]1O (some centres not stated)	79.4% (inactive)
CN(CCOc1ccc(C[C@H](Nc2ccccc2C(=O)c2ccccc2)C(=O)O)cc1)c1ccccn1	100% (inactive)
CN(C)CCN(Cc1cccs1)c1ccccn1	110% (inactive)
CC(C)NP(=O)(NC(C)C)OP(=O)(NC(C)C)NC(C)C	117% (inactive)
CN1C(=O)CC[C@H]1c1cccnc1	110% (inactive)
CCN(CC)CCOCCOC(=O)C1(c2ccccc2)CCCC1	108% (inactive)
COc1ccc(CCN)cc1O	108% (inactive)
CN1CCN(CCCN2c3ccccc3Sc3ccc(Cl)cc32)CC1	68.9% (inactive)
COC(=O)[C@H]1[C@H]2C[C@@H]3c4[nH]c5cc(OC)ccc5c4CCN3C[C@H]2C[C@@H](OC(=O)c2cc(OC)c(OC)c(OC)c2)[C@@H]1OC	75.8% (inactive)

Reference: PubChem BioAssay AID732 (Emory University Molecular Libraries Screening Center, 2007)
